Measured values published in PMC9368227, “Investigation of Radiotracer Metabolic Stability In Vitro with CYP-Overexpressing Hepatoma Cell Lines” (Cells, 2022).

How the values were obtained:
[1] = test system: human liver microsomes (HLMs); experiment: Microsome assay, human liver microsomes; format: in vitro ADME; details: for Amount of intact tracer: radio-TLC
Protocol: The stability of [^18F]1 toward liver microsomes was analyzed under oxidative conditions with MLMs (MSMCP, Lot: MS046-C) and HLMs (HMMCPL; Lot: PL050E-B) according to a previously described procedure. In brief, 12.5 µL of the respective microsomes (final 1 mg/mL) were mixed with 110.4 µL of PBS, followed by the addition of 100 µL of [^18F]1 (with 5 MBq and 1% ethanol; final 0.4% ethanol) and 2.1 µL of reference compound (final concentration 50 µM 1), or an equivalent of DMSO. The resulting mixture was mixed at 37 °C for 5 min, and the reaction was then initiated by the addition of 25 µL of NADPH (final 2 mM). After 1 h incubation, the resulting samples were mixed with ice-cold ACN (1/4, v/v) and vortexed for 30 s, placed on ice for 4 min, and finally centrifuged at 13,200 rpm for 5 min at 4 °C. The supernatant was separated and used for further analysis by radio-HPLC (6–10 µL injection volume; System 1b with 25–75% gradient elution) and radio-TLC analysis (2 µL applied on TLC, analysis as described above).

HepG2 CYP1A2 = experiment: Competitive coincubation of [18F]1 with competitors, HepG2 CYP1A2; details: 1 h; without any additional substance; 120–125 nM [18F]1
Protocol: Radio thin-layer chromatography (radio-TLC) was carried out on reversed-phase TLC plates (ALUGRAM RP-18W/UV254 from Macherey-Nagel, Düren, Germany) with a mobile phase of 45% ACN in water containing 0.1% trifluoroacetic acid. The samples (2 µL) were spotted onto the TLC plate. The line of origin and the front line were labeled with 1/5 of the sample activity concentration. To track the Rf value of the intact radiotracer, each TLC was spotted with the intact tracer as reference in the middle. Detection of the activity signals was achieved after 10–30 min development on radioluminographic imaging plates (FUJIFILM, Tokyo, Japan) and subsequent readout with Fuji BAS 5000® or Amersham™ Typhoon™ from GE Healthcare (Uppsala, Sweden). The resulting chromatographic profile was analyzed and integrated with the help of AIDA Image Analysis Software (version 5.1). For data depiction, the fraction of each species (intact radiotracer, metabolite, [^18F]fluoride) was plotted.
Incubations were conducted for up to 2 h in a 96-well plate in KHB with a total incubation volume of 50 µL and an ethanol concentration of 0.4%. For the incubation with radiotracers, an activity of 100–200 kBq/well at the start of the experiment was used.
Our last interest within this study was to test if the tracer itself could function as an indicator for the conversion of other substrates acting via inhibition of or competition with the CYP enzymes. In this regard, alternative substrates were added to the incubation mixtures with [^18F]1. The investigated substrates covered testosterone, caffeine, progesterone, compound 3, tebufelone, and RWJ63556 [44] (10 µM for all substances). Furthermore, the influence of testosterone on the metabolic turnover of [^18F]1 was investigated over a concentration range of 1–50 µM.
Figure 7 Coincubation of [^18F]1 and different competitors with (A) HepG2 CYP1A2 and (B) HepG2 CYP2C19. […] Each competitor/inhibitor was incubated with [^18F]1 for 1 h followed by radio-TLC analysis. Activity concentrations of 94–197 kBq/well (1.9–3.9 MBq/mL) were used at start of experiment, which correspond to a concentration of 120–125 nM. Statistical analysis performed with Dunnett’s multiple comparison (post hoc test) according to the intact tracer amount (* p < 0.05; *** p < 0.001; **** p < 0.0001; n = 4).

Cc1ccc(-c2cc(C[18F])nn2-c2ccc(S(C)(=O)=O)cc2)cc1 [[^18F]1, 3-([^18F]fluoromethyl)-1-[4-(methylsulfonyl)phenyl]-5-(p-tolyl)-1H-pyrazole]
Increase of intact tracer amount with carrier addition ([1]; 1 h, CA versus without carrier addition): sevenfold | Amount of intact tracer ([1]; 1 h, carrier-added (CA), 50 µM 1): 30.3% | Amount of intact tracer ([1]; 1 h, without carrier addition, 38 MBq/mL (931 nM), 1 mg/mL microsomes, NADPH): 4.2% | Formation of second metabolite (M2) ([1]; 1 h incubation): observed | Intact tracer [18F]1 remaining (HepG2 CYP1A2): 33%
